Results published in EP0108452A1, “Treatment of gastric inflammatory disease with cytoprotective prostaglandins and histamine-2 blocking anti-secretory agents” (THE PROCTER & GAMBLE COMPANY, priority 1982, dated 1984).

Test system: Male Sprague-Dawley rats
Test: Cysteamine duodenal ulcer model (cysteamine gastric ulcer model)
Type: in vivo
Conditions: PG-V 5 mg/kg; for % of Cntrl.: damage grading score relative to veh. cntrl.; for % of Cntrl. / % of Redc'n.: oral x3; for Damage Grading Score: oral, x3 at 0, 4 and 8 hours after cysteamine 500 mg/kg s.c., lower score = greater protection; for % of Redc'n.: reduction of damage grading score vs veh. cntrl.
Experimental: Male Sprague-Dawley rats weighing between 180 and 230 g are fasted for 24 hours during which time they are given ad libitum access to tap water. At the end of the 24 hour fast period, 500 mg/kg of cysteamine is administered subcutaneously. At the same time, the drug or control treatment is begun. The drug or control treatment consists of administering the drug or vehicle/control at 24 hours, 28 hours, and 32 hours after the fast has begun. That is, the drug, or vehicle/control treatment is administered at 0, 4 and 8 hours after the cysteamine. 48 hours after the fasting has begun, 24 hours after the administration of cysteamine, the rats are anesthetized and sacrificed. After sacrifice, the abdominal cavity is opened, and the stomach and approximately 2 inches of duodenum are excised and removed from the rat. They are placed on a 4" x 4" labelled index card. Care must be taken not to disturb the duodenum as this could affect the grading. The stomach and duodenum are cut open along the greater curvature and longitudinally along the anti-mesenteric side, respectively. The duodenum is carefully spread out without altering the orientation of the lesions and the thickness of the mucosa. They are viewed through a stereo microscope at approximately 7x magnification for gross examination of the stomach, pylorus and duodenal surface. For each duodenum, the amount of erythema, the amount of edema, a total lesion area and the severity of the lesions are evaluated according to the grading scale in Table 1. This is also repeated for the stomach. This information is recorded. The lower the score, the greater the protection. The lowest score which an agent can achieve in this model is the maximal intrinsic activity for this agent in this model. The smallest dosage of this agent which achieves this lowest score is the lowest dosage or level of administration which yields maximal intrinsic activity for this agent. [table] In Examples I-VIII, all were conducted in accordance with the cysteamine gastric ulcer model described above. The vehicle was 0.75% polyoxyethylene (20) sorbitan mono-oleate (Tween 80). All dosages were at a rate of 2.5 ml/kg. The treatment compositions were orally dosed at a volume of 2.5 mllkg, in accordance with the model, at 24, 28 and 32 hours after the beginning of the fast, or 0, 4 and 8 hours after the subcutaneous administration of cysteamine. In preparing the prostaglandin + […] compositions, the selected amount of prostaglandin and selected amount of cimetidine were added to a volume which was equivalent to 2.5 ml/kg for each animal. This was then given to the animal at 24, 28 and 32 hours respectively, after the beginning of the fast. The damage grading score was in accordance with the table provided in the cysteamine gastric ulcer model.

[1] = Example I, Cimetidine 25 mg/kg, veh. cntrl. 9.0 ± 2.2
[2] = Example II, Cimetidine 25 mg/kg
[3] = Example II, Cimetidine 25 mg/kg, veh. cntrl. 15.5 ± 4.5
[4] = Example III, Cimetidine 50 mg/kg
[5] = Example III, Cimetidine 50 mg/kg, veh. cntrl. 18.3 ± 3.7

Compound | % of Cntrl. (Example I, Cimetidine 25 mg/kg) [%] | Damage Grading Score [1] | % of Redc'n. (Example I, Cimetidine 25 mg/kg) [%] | % of Cntrl. [2] [%] | Damage Grading Score [3] | % of Redc'n. [2] [%] | % of Cntrl. [4] [%] | Damage Grading Score [5] | % of Redc'n. [4] [%]
CN/C(=N/CCSCc1nc[nH]c1C)NC#N [Cimetidine] | 133 | 12.0 ± 2.0 | -33 | 159 | 24.6 ± 1.3 | -59 | 61 | 11.1 ± 3.0 | 39
CCCCCC(=O)C#C[C@H]1CCC(=O)[C@@H]1OCCCCCC(=O)O [PG-V, 9,15 dioxo-7-oxa-prost-13,14-ynoic acid] | 140 | 12.6 ± 2.6 | -40 | 106 | 16.4 ± 3.3 | -6 | 117 | 21.5 ± 4.6 | -17
